System: lashes and adjacent hairs of patients having glaucoma
Experiment: Clinical observation of lashes and adjacent hairs in glaucoma patients treated in one eye
Type: in vivo, human
Excerpt: In the course of treating patients having glaucoma, treatment may only be appropriate in one eye. […] The lash appearance on the lids of the treated eyes would have appeared quite attractive if it represented a bilateral phenomenon. As a result of its asymmetric nature, the long lashes on one side could be construed as disturbing from a cosmetic standpoint. A systemic examination was preformed as a result of the asymmetric phenomenon. It soon became apparent that this altered appearance was not an isolated finding.
The changes in the lashes were apparent on gross inspection in several patients once attention was focused on the issue. In those with light colored hair and lashes, the differences were only seen easily with the aid of the high magnification and lighting capabilities of the slit lamp biomicroscope. In the course of glaucoma follow-up examination, attention is generally immediately focused on the eye itself. As a result of the high power magnification needed only one eye is seen at a time and the eye is seen at a high enough power that the lashes are not in focus. At these higher powers, any lash asymmetry between the two eyes is not likely to be noticed except by careful systematic comparison of the lashes and adjacent hairs of the eyelids of the two eyes. […]

SMILES: CCNC(=O)CCC/C=C\C[C@@H]1[C@@H](/C=C/[C@@H](O)CCc2ccccc2)[C@H](O)C[C@@H]1O [bimatoprost]
- lash appearance, treated eye versus non-treated eye (a patient treated in one eye): longer, thicker, and fuller in the treated eye than in the non-treated eye
- differences in lashes and adjacent hairs of the treated side (all patients taking the drug on a unilateral basis for longer than 6 months): Definite differences could be identified to varying degrees

From patent publication US20090233921A1, “THERAPEUTIC CYCLOPENTANE DERIVATIVES” (ALLERGAN, INC., priority 2008, published 2009)
